Experimental data reported in US11603568B2, “NOX2 as a biomarker of radiotherapy efficiency in cancer patients” (Institut Gustave-Roussy, priority 2016, dated 2023).

Experiments:
Type in all cases: cell-based
[1] = test system: PMA-treated human THP1 monocytes; assay: Immunoblots of ATMS1981*, ATM, IRF5 and NOX2 expression in PMA-treated human THP1 monocytes; conditions: for ATM activation (ATMS1981*) by the agent / IRF5 expression induced by the agent: 24 hours, 20 ng/ml human IFN-γ, 100 ng/ml LPS, 10 μM CDDP (FIGS. 3D, 3F, 3G)
Description: (§1) The human monocyte cell line THP1 cells and the murine macrophage-like RAW264.7 cells were maintained in RMPI-1640-Glutamax medium (Life technology) supplemented with 10% heat-inactivated fetal bovine serum (Hycultec GmbH) and 100 UI/ml penicillin-streptomycin (Life technology). To obtain THP1 macrophages, THP1 monocytes were differentiated with 320 nM of PMA (Invivogen) during 24 h. Then, cells were washed three times to remove PMA and non-adherent cells. For the generation of monocytes-derived macrophages (hMDM), buffy coats from healthy donor blood were obtained from the French blood bank (Etablissement Français du Sang) under the control of convention with the INSERM. In accordance with French law, written informed consent for the use of cells for clinical research was obtained from each donor. Monocytes were obtained from buffy coats and were differentiated into macrophages by using human AB serum in macrophage medium, as previously described. […] All cells were maintained under 5% CO2 humidified atmosphere at 37° C. For hypoxic experiments, cells were incubated in the hypoxic hood (Scitive) under 1% 02, with 5% CO2 humidified atmosphere at 37° C. Dimethyl Sulfoxide (DMSO), Lipopolysaccharides (LPS), Dimethyloxalylglycine (DMOG), NAcetyl-L-cysteine (NAC), Diphenyleneiodonium chloride (DPI), Neocarzinostatin (NCZ), cis-Diammineplatinum(II) dichloride (CDDP) were purchased from Sigma-Aldrich. Recombinant murine IFN-γ (mIFN-γ) was obtained from PeproTech Recombinant Human IFN-γ was from R&D Systems. KU55933 was from Tocris Bioscience. Mn(III)tetrakis (4-benzoic acid) porphyrin Chloride (MnTBAP) was from Calbiochem. Olaparib was from Selleckchem. Phorbol 12-myristate 13-acetate (PMA) was from Invivogen.
(§2) Human MDM (10^6) were activated by treatment with […] recombinant human IFN-γ for 24 h. THP1 monocytes were differentiated into macrophages by 320 nM PMA for 24 h. Then, macrophages were activated with 20 ng/ml recombinant human IFN-γ or 100 ng/ml LPS during 24 h. RAW264.7 macrophages were activated with 20 ng/ml recombinant murine IFN-γ or 100 ng/ml LPS for 24 h.
(§3) Cells were seeded in 6-well plates, 12-well plates or 25 cm^2 flasks and irradiated with gamma-ray irradiator IBL-637 (Cs137, 1 Gy/min, gamma CIS-Bio International, IBA, Saclay, France) or with X-ray irradiator (1Gy/min, X-RAD 320, Precision X-Ray). Cells were harvested at indicated time points (hMDMs and THP1 macrophages at 96 h, RAW264.7 macrophages at 6 h) after irradiation for subsequent experiments.
(§4) Cells were washed twice with cold PBS and lysed with NEHN buffer (0.5% NP40, 20% Glycerol, 300 mM NaCl, 20 mM Herps, pH 7.5, and 1 mM EDTA) complemented with 2.5 mM DTT and the protease and phosphatase inhibitor (Roche) at 4° C. 5-20 μg of proteins were separated by NuPAGE 4-12% or 10% SDS-PAGE gel (Invitrogen) and then were transferred onto a nitrocellulose membrane (0.2 Micron, Bio-Rad). Membranes were blocked with 5% nonfat milk or 5% Bovine Serum Albumine (BSA) in Tris-buffered saline and 0.1% Tween 20 (TBS-T) at room temperature for 1 h and then subsequently probed with primary antibodies (1/5000-1/1000) overnight at 4° C. Then, membranes were incubated with appropriate horseradish peroxidase-conjugated anti-rabbit or anti-mouse IgG (SouthernBiotech) for 1 h at room temperature.

[2] = test system: murine RAW264.7 macrophages; assay: Confocal immunofluorescence of DNA damage-associated nuclear foci; conditions: 24 h treatment; 20 ng/ml mIFN-γ, 100 ng/ml LPS or 10 μM CDDP (FIGS. 3A-3C)
Description: Cells were grown on coverslips and were treated as indicated. After treatment, cells were rinsed twice, fixed with 10% neutral buffered formalin (Sigma-Aldrich) for 10 min and then permeabilized with 0.3% Triton X-100 in PBS for 15 min. Cells were then washed twice with PBS and were blocked with 10% FBS in PBS for 1 h at room temperature, followed by incubation with primary antibodies (1/100) in 10% FBS in PBS for 1 h30 min at room temperature. Then, samples were incubated with secondary antibodies using Alexa Fluor-488 green or Alexa Fluor-546 red (1/500, Life Technologies) and Hoechst 33342 for nuclei (1/1000, Thermo Fisher Scientific) in 10% FBS in PBS for 30 min at room temperature. Coverslips were mounted with Fluoromount-G (SouthernBiotech) ant then visualized with Leica TCS SPE confocal microscope (Leica Microsystemes, France).

[3] = test system: murine RAW264.7 macrophages; assay: Immunoblots of ATMS1981*, ATM, IRF5 and NOX2 expression in murine RAW264.7 macrophages; conditions: for ATM activation (ATMS1981*) by the agent / IRF5 expression induced by the agent: 24 hours, 10 μM CDDP, 200 ng/ml NCZ, 10 μM Olaparib (FIGS. 3E, 3H-3J)
Description: as §1, §2, §3, §4

macrophages = assay: Macrophage viability (LDH release); conditions: data not shown; cells and concentrations as in the activation experiments
Source text: The release of LDH in the supernatants of cultured cells was detected using Cytotoxicity Detection KitPLUS (LDH) from Roche according to the manufacturers' instructions.

[4] = test system: murine RAW264.7 macrophages; assay: Detection of ROS production (H2DCFDA staining, flow cytometry); conditions: for ROS production after IR or mIFN-γ in presence of the inhibitor: 2 Gy single dose or 20 ng/ml mIFN-γ, NAC 1 μg/ml, DPI 200 nM
Description: Hydrogen peroxide and anion superoxide production were determined by staining cells with 5 μM of 2,7-dichlorodihydrofluorescein diacetate (H2DCFDA, Sigma) for 40 min at 37° C. Cells were then washed twice with Hanks' balanced salt solution (HBSS, from Thermo Fisher Scientific) and suspended in cold HBSS solution containing 1% FBS for FACS analysis.
Considering that reactive oxygen species (ROS) have been involved in both ATM activation and macrophage differentiation, the role of ROS production during macrophage activation was investigated.

hMDM = assay: Immunoblots of ATMS1981*, ATM, IRF5 and NOX2 expression in human monocyte-derived macrophages (hMDM)
Description: as §1, with “Dimethyl Sulfoxide (DMSO), Lipopolysaccharides (LPS), Dimethyloxalylglycine (DMOG), NAcetyl-L-cysteine (NAC), Diphenyleneiodonium chloride (DPI), Neocarzinostatin (NCZ), cis-Diammineplatinum(II) dichloride (CDDP) were purchased from Sigma-Aldrich. Recombinant murine IFN-γ (mIFN-γ) was obtained from PeproTech Recombinant Human IFN-γ was from R&D Systems. KU55933 was from Tocris Bioscience. Mn(III)tetrakis (4-benzoic acid) porphyrin Chloride (MnTBAP) was from Calbiochem. Olaparib was from Selleckchem. Phorbol 12-myristate 13-acetate (PMA) was from Invivogen.” left out

[5] = 10 μM MnTBAP, 8 Gy single dose, 48 hours (FIG. 4G)
[6] = 1 μg/ml NAC, 2 Gy, 6 hours or 20 ng/ml mIFN-γ, 24 hours (FIGS. 4E, 4F)
[7] = 10 μM Olaparib, 2 Gy, 6 hours (FIG. 2P)

Molecule: N.N.[Cl][Pt][Cl] [Cisplatin, cis-Diammineplatinum(II) dichloride]
- ATM activation (ATMS1981*) by the agent [1]: activated ATM
- IRF5 expression induced by the agent [1]: increased IRF5 expression
- ATMS1981*+ and γ-H2AX+ nuclear foci [2]: activated ATM
- ATM activation (ATMS1981*) by the agent ([3]; 20 ng/ml mIFN-γ): activated ATM
- IRF5 expression induced by the agent ([3]; 20 ng/ml mIFN-γ): increased IRF5 expression

Molecule: COC(=O)CNC(=O)C(=O)OC [DMOG, Dimethyloxalylglycine]
- ATMS1981* and IRF5 expressions reduced after mIFN-γ stimulation ([3]; 500 μM DMOG, 20 ng/ml mIFN-γ, 24 hours (FIG. 4K)): confirmed
- IR-mediated ATMS1981* and IRF5 expressions ([3]; 500 μM DMOG, 2 Gy single dose, 6 hours (FIG. 4I)): reduced

Molecule: c1ccc2c(c1)[I+]c1ccccc1-2 [DPI, Diphenyleneiodonium chloride]
- macrophage viability (macrophages): without modifying macrophage viability
- ROS production after IR or mIFN-γ in presence of the inhibitor [4]: impaired
- ATMPS1981* and IRF5 up-regulation after IR or mIFN-γ ([3]; 200 nM DPI, 2 Gy, 6 hours or 20 ng/ml mIFN-γ, 24 hours (FIGS. 5L, 5M)): impaired

Molecule: O=c1cc(-c2cccc3c2Sc2ccccc2S3)oc(N2CCOCC2)c1 [KU55933]
- macrophage viability (macrophages): without altering macrophage viability
- γ-H2AX and ATMS1981* phosphorylations and the up-regulation of IRF5 expression after irradiation (hMDM; 10 μM KU55933, 4 Gy single dose, 96 hours (FIG. 2O)): impaired
- γ-H2AX and ATMS1981* phosphorylations and the up-regulation of IRF5 expression after irradiation ([3]; 20 μM KU55933, 2 Gy single dose, 6 hours (FIG. 2N)): impaired

Molecule: O=C(O)c1ccc(C2=C3C=CC(=N3)C(c3ccc(C(=O)O)cc3)=c3ccc([nH]3)=C(c3ccc(C(=O)O)cc3)c3ccc([n-]3)C(c3ccc(C(=O)O)cc3)c3ccc2[n-]3)cc1.[Cl-].[Mn+3] (stereo not drawn) [MnTBAP, Mn(III)tetrakis (4-benzoic acid) porphyrin Chloride]
- activating phosphorylation of ATM (ATMS1981*) after IR [1, 5]: inhibited
- increased expression of IRF5 after IR [1, 5]: reduced
- macrophage viability (macrophages): without impacting macrophage viability
- ROS production after IR or mIFN-γ in presence of the inhibitor [4]: blunted the ROS production

Molecule: CC(=O)N[C@@H](CS)C(=O)O [NAC, NAcetyl-L-cysteine]
- macrophage viability (macrophages): without impacting macrophage viability
- ROS production after IR or mIFN-γ in presence of the inhibitor [4]: blunted the ROS production
- activating phosphorylation of ATM (ATMS1981*) after IR or mIFN-γ [3, 6]: inhibited
- increased expression of IRF5 after IR or mIFN-γ [3, 6]: reduced

Molecule: O=C(c1cc(Cc2n[nH]c(=O)c3ccccc23)ccc1F)N1CCN(C(=O)C2CC2)CC1 [Olaparib]
- ATM activation after irradiation [3, 7]: enhancement of ATM activation
- IRF5 expression after irradiation (inflammatory macrophage activation elicited by IR) [3, 7]: increased expression of IRF5
- ATM activation (ATMS1981*) by the agent ([3]; 20 ng/ml mIFN-γ): activated ATM
- IRF5 expression induced by the agent ([3]; 20 ng/ml mIFN-γ): increased IRF5 expression

Molecule: Neocarzinostatin
- ATM activation (ATMS1981*) by the agent ([3]; 20 ng/ml mIFN-γ): activated ATM
- IRF5 expression induced by the agent ([3]; 20 ng/ml mIFN-γ): increased IRF5 expression

B1: IFN-γ: Recombinant Human IFN-γ from R&D Systems, classical macrophage activator (protein, UniProt P01579 24-161, looked up)
Interferon gamma: QDPYVKEAENLKKYFNAGHSDVADNGTLFLGILKNWKEESDRKIMQSQIVSFYFKLFKNFKDDQSIQKSVETIKEDMNVKFFNSNKKKRDDFEKLTNYSVTDLNVQRKAIHELIQVMAELSPAAKTGKRKRSQMLFRG
- NOX2 up-regulated (immunoblot) ([1]; 20 ng/ml hIFN-γ, 24 hours (FIG. 5C)): confirmed
- ATM activation (ATMS1981*) by the agent [1]: activation of ATM
- IRF5 expression induced by the agent [1]: increased expression of IRF5
- NOX2 up-regulated (immunoblot) (hMDM; 4 μg/ml hIFN-γ, 24 hours (FIG. 5B)): confirmed

B2: mIFN-γ: Recombinant murine IFN-γ from PeproTech, classical macrophage activator (protein, UniProt P01580 23-155, looked up)
Interferon gamma: HGTVIESLESLNNYFNSSGIDVEEKSLFLDIWRNWQKDGDMKILQSQIISFYLRLFEVLKDNQAISNNISVIESHLITTFFSNSKAKKDAFMSIAKFEVNNPQVQRQAFNELIRVVHQLLPESSLRKRKRSRC
- ATMS1981*+ and γ-H2AX+ nuclear foci [2]: accumulation of ATMS1981*+ and γ-H2AX+ foci
- ROS production induced by the treatment ([4]; 20 ng/ml mIFN-γ (FIGS. 4C, 4D)): induced ROS production
- NOX2 up-regulated (immunoblot) ([3]; 20 ng/ml mIFN-γ, 24 hours (FIG. 5E)): confirmed
- ATM activation (ATMS1981*) by the agent ([3]; 20 ng/ml mIFN-γ): activation of ATM
- IRF5 expression induced by the agent ([3]; 20 ng/ml mIFN-γ): increased expression of IRF5
